# Measurements from ChEMBL document CHEMBL4020822, “Identification of N-{cis-3-[Methyl(7H-pyrrolo[2,3-d]pyrimidin-4-yl)amino]cyclobutyl}propane-1-sulfonamide (PF-04965842): A Selective JAK1 Clinical Candidate for the Treatment of Autoimmune Diseases” (J Med Chem, 2018).
# Key:
# [1] = physchem; settings: octanol/water phosphate buffer, pH 7.4
# [2] = Apparent permeability in RRCK cells from apical to basolateral side; assay type: ADME, cell-based, Canis lupus familiaris, MDCKII-LE; settings: dog, MDCK
# [3] = Volume of distribution at steady state in rat at 1 mg/kg, iv or 3 mg/kg, po; assay type: ADME, organism-based; settings: in vivo, read-out: Vdss
# [4] = Oral bioavailability in rat at 3 mg/kg; assay type: ADME, organism-based; settings: in vivo
# [5] = Aqueous solubility of the compound at pH 7.4; assay type: physicochemical
# [6] = Tmax in freund's adjuvant-induced Lewis rat arthritis model blood at 15 mg/kg, po qd administered via oral gavage measured on day 7; assay type: ADME, organism-based
Structure (SMILES),logD [1],further results
CN(c1ncnc2[nH]ccc12)[C@H]1C[C@@H](NS(=O)(=O)CC(F)(F)F)C1,1.9,
CC(C)CS(=O)(=O)N[C@H]1C[C@@H](N(C)c2ncnc3[nH]ccc23)C1,2.4,
CN(CCC#N)S(=O)(=O)N[C@H]1C[C@@H](N(C)c2ncnc3[nH]ccc23)C1,1.3,
CCCCS(=O)(=O)C[C@H]1C[C@@H](N(C)c2ncnc3[nH]ccc23)C1,2.2,Papp A→B [2]: 23 ×10⁻⁶ cm/s; Vd [3]: 0.74 L/kg; bioavailability [4]: 119%; solubility [5]: 213 µM
CCCNS(=O)(=O)C[C@H]1C[C@@H](N(C)c2ncnc3[nH]ccc23)C1,2.1,
COCCS(=O)(=O)N[C@H]1C[C@@H](N(C)c2ncnc3[nH]ccc23)C1,1.2,
CCCCN(C)S(=O)(=O)C[C@H]1C[C@@H](N(C)c2ncnc3[nH]ccc23)C1,3,
CN(c1ncnc2[nH]ccc12)[C@H]1C[C@@H](CS(=O)(=O)NCC2CC2)C1,2.2,
CN(c1ncnc2[nH]ccc12)[C@H]1C[C@@H](CS(=O)(=O)C2CC2)C1,1.6,
CN(c1ncnc2[nH]ccc12)[C@H]1C[C@@H](NS(=O)(=O)N2CCCCC2)C1,2.7,
CN(c1ncnc2[nH]ccc12)[C@H]1C[C@@H](NS(=O)(=O)CCCC(F)(F)F)C1,2.4,
CN(c1ncnc2[nH]ccc12)[C@H]1C[C@@H](NS(=O)(=O)NCCCC#N)C1,1.2,
CN(c1ncnc2[nH]ccc12)[C@H]1C[C@@H](NS(=O)(=O)Cc2ccccc2)C1,2.6,
CCN(C)S(=O)(=O)N[C@H]1C[C@@H](N(C)c2ncnc3[nH]ccc23)C1,2.1,
COCCCS(=O)(=O)N[C@H]1C[C@@H](N(C)c2ncnc3[nH]ccc23)C1,1.5,
CCCCS(=O)(=O)N[C@H]1C[C@@H](N(C)c2ncnc3[nH]ccc23)C1,2.4,
CCNS(=O)(=O)C[C@H]1C[C@@H](N(C)c2ncnc3[nH]ccc23)C1,1.5,
CCCS(=O)(=O)C[C@H]1C[C@@H](N(C)c2ncnc3[nH]ccc23)C1,1.7,
CCCCNS(=O)(=O)C[C@H]1C[C@@H](N(C)c2ncnc3[nH]ccc23)C1,2.6,
CN(CC1CC1)S(=O)(=O)C[C@H]1C[C@@H](N(C)c2ncnc3[nH]ccc23)C1,2.7,
CN(c1ncnc2[nH]ccc12)[C@H]1C[C@@H](NS(=O)(=O)CCCC#N)C1,,Papp A→B [2]: 4 ×10⁻⁶ cm/s; Vd [3]: 1.42 L/kg; bioavailability [4]: 61.1%; solubility [5]: 259 µM
CCS(=O)(=O)C[C@H]1C[C@@H](N(C)c2ncnc3[nH]ccc23)C1,1.2,
CN(c1ncnc2[nH]ccc12)[C@H]1C[C@@H](NS(=O)(=O)c2ccccc2)C1,2.8,
CN(c1ncnc2[nH]ccc12)[C@H]1C[C@@H](NS(=O)(=O)CCC(F)(F)F)C1,2.4,
CN(c1ncnc2[nH]ccc12)[C@H]1C[C@@H](CS(=O)(=O)c2ccccc2)C1,2.7,
CN(c1ncnc2[nH]ccc12)[C@H]1C[C@@H](NS(=O)(=O)c2ccc(F)cc2)C1,2.8,
CN(c1ncnc2[nH]ccc12)[C@H]1C[C@@H](CS(=O)(=O)N2CCCC2)C1,2.1,
CCS(=O)(=O)N1CC(CC#N)(n2cc(-c3ncnc4[nH]ccc34)cn2)C1 [BARICITINIB],1.2,
N#CC[C@H](C1CCCC1)n1cc(-c2ncnc3[nH]ccc23)cn1 [RUXOLITINIB],2.7,
C[C@@H]1CCN(C(=O)CC#N)C[C@@H]1N(C)c1ncnc2[nH]ccc12 [TOFACITINIB],1.1,

# Now from value to compound, other results behind:
logD [1],Structure (SMILES),further results
1,CN(c1ncnc2[nH]ccc12)[C@H]1C[C@@H](NS(=O)(=O)CC2COC2)C1,Papp A→B [2]: 3 ×10⁻⁶ cm/s; Vd [3]: 1.99 L/kg; bioavailability [4]: 48.3%; solubility [5]: 437 µM
1.8,CN(c1ncnc2[nH]ccc12)[C@H]1C[C@@H](NS(=O)(=O)CC2CC2)C1,
2.1,CN(c1ncnc2[nH]ccc12)[C@H]1C[C@@H](NS(=O)(=O)NCC2CC2)C1,
1.6,CN(c1ncnc2[nH]ccc12)[C@H]1C[C@@H](NS(=O)(=O)C2CC2)C1,
2.2,CN(C1CC1)S(=O)(=O)N[C@H]1C[C@@H](N(C)c2ncnc3[nH]ccc23)C1,
2.4,CN(c1ncnc2[nH]ccc12)[C@H]1C[C@@H](NS(=O)(=O)CC2CCC2)C1,
1.6,CCNS(=O)(=O)N[C@H]1C[C@@H](N(C)c2ncnc3[nH]ccc23)C1,
1.6,CN(c1ncnc2[nH]ccc12)[C@H]1C[C@@H](NS(=O)(=O)NC2CC2)C1,
1.4,CCS(=O)(=O)N[C@H]1C[C@@H](N(C)c2ncnc3[nH]ccc23)C1,
2,CCCNS(=O)(=O)N[C@H]1C[C@@H](N(C)c2ncnc3[nH]ccc23)C1,
1.2,CN(c1ncnc2[nH]ccc12)[C@H]1C[C@@H](NS(C)(=O)=O)C1,
2,CCCS(=O)(=O)N[C@H]1C[C@H](N(C)c2ncnc3[nH]ccc23)C1,
1.9,CCCS(=O)(=O)N[C@H]1C[C@@H](N(C)c2ncnc3[nH]ccc23)C1 [ABROCITINIB],Papp A→B [2]: 16 ×10⁻⁶ cm/s; Vd [3]: 1.04 L/kg; bioavailability [4]: 95.6%; solubility [5]: 503 µM; Tmax [6]: 15 min
